From patent US12692267B2 (Madera Therapeutics, LLC, priority 2019, dated 2026)
Like-named read-outs stand apart in the source and are kept apart here. One block for each compound: values may come before it.

What was measured:
[1] = system: HCT116 (human colon cancer); test: Cancer cell viability, CCK-8, HCT116; format: cell-based; conditions: for EC50: read-out: EC50 (uM, HCT116); for IC50: read-out: IC50 (uM, HCT116)
Experimental: (§1) Cancer cell lines. […] The plate is incubated for 48 hours.
(§2) CCK-8 solution is added directly to the cells.

[2] = molecular target: recombinant human caseinolytic peptidase hClpP (Homo sapiens, UniProt Q16740); test: hClpP peptide hydrolysis assay (Ac-WLA-AMC); conditions: for Time course of hClpP activity: 1 uM, Protocol 2; for Dose-dependency of hClpP activation: Protocol 2, purified hClpP, Ac-WLA-AMC
Chain of recombinant human caseinolytic peptidase hClpP (Q16740 57-277): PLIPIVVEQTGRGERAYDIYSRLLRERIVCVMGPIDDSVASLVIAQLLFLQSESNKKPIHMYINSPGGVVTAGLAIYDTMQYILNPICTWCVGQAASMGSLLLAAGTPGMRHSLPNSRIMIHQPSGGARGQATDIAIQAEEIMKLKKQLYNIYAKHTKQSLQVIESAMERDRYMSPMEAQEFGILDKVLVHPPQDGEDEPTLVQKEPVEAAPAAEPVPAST
Experimental: Briefly, the activity of recombinant hClpP proteolytic subunit (1 μg/mL) was measured in the assay buffer composed of 50 mM Tris, 10 mM MgCl2, 100 mM KCl, 1 mM DTT, 4 mM ATP, 0.02% Triton X-100 and 5% Glycerol, pH 8.0 (HCl) using 10 µM of fluorogenic Ac-WLA-AMC substrate as described in references above. […] Using the first protocol (Protocol 1), the reaction was initiated by immediately mixing enzyme and substrate in the presence of indicated doses of compounds. Applying a second protocol (Protocol 2), the enzyme and compounds were mixed and incubated in assay buffer for 60 min before initiating the reaction by adding Ac-WLA-ACM substrate.
Enzymatic activity of hClpP was measured in assay buffer (as described in Experimental Procedure/Materials and Methods) and the level of fluorescence of liberated coumarin monitored continuously.

[3] = system: MDA-MB-231 (MDA 231, human breast adenocarcinoma); test: Cancer cell viability, CCK-8, MDA-MB-231; format: cell-based; conditions: for IC50: read-out: IC50 (uM, MDA 231); for EC50: read-out: EC50 (uM, MDA 231)
Experimental: as §1, §2

[4] = system: ClpX and TUFM; test: ClpX and TUFM Western blots in SUM159 cells (FIG. 5); conditions: concentration response and time course
[5] = Homo sapiens, HCT-116, 48 h, HCT116, 48 hours, CCK-8
[6] = Homo sapiens, MDA-MB-231, MDA 231, 48 hours, CCK-8

- EC50 [1, 5]: 0.0021 µM
SMILES: N#Cc1cccc(CN2CC3=C(C2)N2CCN=C2N(Cc2ccc(C(F)(F)F)cc2)C3=O)c1 [Example 77, 3-[(7-oxo-8-{[4-(trifluoromethyl)phenyl]methyl}-1,4,8,10-tetraazatricyclo[7.3.0.0^2,6]dodeca-2 (6),9-dien-4-yl)methyl]benzonitrile]

- EC50 [1, 5]: 0.011 µM
SMILES: O=C1C2=C(CN(Cc3ccccc3)C2)N2CCN=C2N1Cc1ccc(Cl)cc1 [Example 80, 4-benzyl-8-[(4-chlorophenyl)methyl]1,4,8,10-tetraazatricyclo[7.3.0.0^2,6]dodeca-2 (6),9-diene-7-one]
- Time course of hClpP activity [2]: time-dependent increase in hClpP activity

- EC50 [1, 5]: 5.7 µM
SMILES: CC#Cc1cccc(CN2CCc3ncn(Cc4ccc(C(F)(F)F)cc4)c(=O)c3C2)c1 [Example 79]

- IC50 [3, 6]: 3.4 µM
- IC50 [1, 5]: 1.8 µM
SMILES: N#Cc1ccc(CN2CCC3=C(C2)C(=O)N(Cc2ccc(Cl)cc2)C2=NCCN23)cc1 [Example 22]

- EC50 [1, 5]: 1.5 µM
SMILES: N#Cc1cccc(CC2CCC3=C(C2)C(=O)N(Cc2ccc(Cl)cc2)C2=NCCN23)c1 (stereo not shown) [Ex. 68, 3-({4-[(4-chlorophenyl)methyl]-5-oxo-1H,2H,4H,5H,6H,7H,8H,9H-imidazo[1,2-a]quinazolin-7-yl}methyl)benzonitrile]
- Dose-dependency of hClpP activation [2]: Dose-dependent increases in hClpP activity

- EC50 [1, 5]: 10.5 µM
SMILES: O=C1CCc2ccc(CN3CCC4=C(C3)C(=O)N(Cc3ccc(Cl)cc3)C3=NCCN34)cc21 [Example 64, 7-[(4-chlorophenyl)methyl]-11-[(3-oxo-2,3-dihydro-1H-inden-5-yl)methyl]-2,5,7,11-tetraazatricyclo[7.4.0.0^2,6]trideca-1(9),5-dien-8-one]

- EC50 ([3]; MDA 231, 48 hours, CCK-8): 0.29 µM
- EC50 ([1]; HCT116, 48 hours, CCK-8): 0.098 µM
SMILES: Cn1c2c(c(=O)n(Cc3ccc(C(F)(F)F)cc3)c1=O)CN(Cc1cccc(Cl)c1)CC2 [Example 56]

- EC50 [3, 6]: 0.021 µM
- EC50 [1, 5]: 0.022 µM
SMILES: N#Cc1cccc(CN2CCC3=C(C2)C(=O)N(Cc2ccc(C(F)(F)F)cc2)C2=NCCCN23)c1 [Ex. 62, 3-[(8-oxo-9-{[4-(trifluoromethyl)phenyl]methyl}-1,5,9,11-tetraazatricyclo[8.4.0.0^2,7]tetradeca-2(7),10-dien-5-yl)methyl]benzonitrile]
- Dose-dependency of hClpP activation [2]: Dose-dependent increases in hClpP activity

- EC50 [1, 5]: 0.069 µM
SMILES: Cc1nc2c(c(=O)n1Cc1ccc(C(F)(F)F)cc1)CN(Cc1cccc(C#N)c1)CC2 [Example 73, 3-[(2-methyl-4-oxo-3-{[4-(trifluoromethyl)phenyl]methyl}-3H,4H,5H,6H,7H,8H-pyrido[4,3-d]pyrimidin-6-yl)methyl]benzonitrile]

- EC50 [1, 5]: 0.23 µM
SMILES: N#Cc1cccc(CN2CCc3c(c(=O)n(Cc4ccc(C(F)(F)F)cc4)c(=O)n3CCCCN)C2)c1 [Example 58, 3-((1-(4-aminobutyl)-2,4-dioxo-3-(4-(trifluoromethyl)benzyl)-1,2,3,4,7,8-hexahydropyrido[4,3-d]pyrimidin-6 (5H)-yl)methyl)benzonitrile]

SMILES: O=C(NCc1ccc2c(c1)OCO2)c1nnc(Cc2ccc(F)cc2Cl)o1 [Ex. 1, reference compound]
- Dose-dependency of hClpP activation [2]: dose-dependent increases in hClpP activity

- EC50 [1, 5]: 0.02 µM
SMILES: N#Cc1cccc(CN2CCc3ncn(Cc4ccc(Br)cc4)c(=O)c3C2)c1 [Example 74, 3-({3-[(4-bromophenyl)methyl]-4-oxo-3H,4H,5H,6H,7H,8H-pyrido[4,3-d]pyrimidin-6-yl}methyl)benzonitrile]

- EC50 [1, 5]: 0.077 µM
SMILES: Cc1nc2c(c(=O)n1Cc1ccc(Br)cc1)CN(Cc1cccc(C#N)c1)CC2 [Example 72, 3-({3-[(4-bromophenyl)methyl]-2-methyl-4-oxo-3H,4H,5H,6H,7H,8H-pyrido[4,3-d]pyrimidin-6-yl}methyl)benzonitrile]

- EC50 [1, 5]: 0.013 µM
SMILES: N#Cc1cccc(CN2CCC3=C(C2)C(=O)N(Cc2ccc(Br)cc2)C2=NCCCN23)c1 [Example 84, 3-({9-[(4-bromophenyl)methyl]-8-oxo-1,5,9,11-tetraazatricyclo[8.4.0.0 ^2,7]tetradeca-2(7), 10-dien-5yl}methyl)benzonitrile]
- Time course of hClpP activity [2]: time-dependent increase in hClpP activity

- EC50 [3, 6]: 0.096 µM
- EC50 [1, 5]: 0.097 µM
SMILES: Cc1nc2c(c(=O)n1Cc1ccc(Cl)cc1)CN(Cc1cccc(C#N)c1)CC2 [Example 61, 3-({3-[(4-chlorophenyl)methyl]-2-methyl-4-oxo-3H,4H,5H,6H,7H,8H-pyrimidin-6-yl}methyl)benzonitrile]

- EC50 [1, 5]: 0.28 µM
SMILES: N#Cc1cccc(CN2CCC3=C(C2)C(=O)N(Cc2ccc(Cl)cc2)C2=NCCCN23)c1 [Example 83, 3-({9-[(4-chlorophenyl)methyl]-8-oxo-1,5,9,11-tetraazatricyclo[8.4.0.0 ^2,7]tetradeca-2(7), 10-dien-5yl}methyl)benzonitrile]
- Time course of hClpP activity [2]: time-dependent increase in hClpP activity

SMILES: Cc1ccccc1CN1C(=O)C2=C(CCN(Cc3ccccc3)C2)N2CCN=C12 [ONC201, reference compound]
- EC50 ([3]; Homo sapiens, MDA-MB-231, 48 h): 3 µM
- IC50 ([3]; Homo sapiens, MDA-MB-231, 48 h): 3 µM
- ClpX and TUFM protein level [4]: reduction of the protein ClpX and TUFM
- EC50 ([1]; Homo sapiens, HCT-116, 48 h): 2.8 µM
- IC50 ([1]; Homo sapiens, HCT-116, 48 h): 2.8 µM

- EC50 [3, 6]: 5 µM
- EC50 [1, 5]: 4 µM
SMILES: N#Cc1cccc(Cc2nnc(C(=O)NCc3ccc(Cl)cc3)o2)c1 [Example 63, N-[(4-chlorophenyl)methyl]-5-[(3-cyanophenyl)methyl]-1,3,4-oxadiazole-2-carboxamide]

- EC50 [1, 5]: 5.2 µM
SMILES: CC#Cc1cccc(CN2CCc3ncn(Cc4ccc(Br)cc4)c(=O)c3C2)c1 [Example 78]

- IC50 [3, 6]: 0.016 µM
- IC50 [1, 5]: 0.016 µM
SMILES: O=C1C2=C(CCN(Cc3cccc(Cl)c3)C2)N2CCN=C2N1Cc1ccc(C(F)(F)F)cc1 [Example 27]

- EC50 [1, 5]: 0.097 µM
SMILES: Cc1nc2c(c(=O)n1Cc1ccc(Cl)cc1)CN(Cc1cccc(C#N)c1)C2 [Example 69, 3-({3-[(4-chlorophenyl)methyl]-2-methyl-4-oxo-3H,4H,5H,6H,7H-pyrrolo[3,4-d]pyrimidin-6-yl}methyl)benzonitrile]

- EC50 [1, 5]: 0.098 µM
SMILES: N#Cc1cccc(CN2CCc3ncn(Cc4ccc(C(F)(F)F)cc4)c(=O)c3C2)c1 [Example 75, 3-[(4-oxo-3-{[4-(trifluoromethyl)phenyl]methyl}-3H,4H,5H,6H,7H,8H-pyrido[4,3-d]pyrimidin-6-yl)methyl]benzonitrile]

- EC50 [1, 5]: 0.01 µM
SMILES: O=C1C2=C(CN(Cc3ccccc3)C2)N2CCN=C2N1Cc1ccc(C(F)(F)F)cc1 [Example 82, 4-benzyl-8-{[4-(trifluoromethyl)phenyl]methyl}1,4,8,10-tetraazatricyclo[7.3.0.0^2,6]dodeca-2 (6), 9-diene-7-one]
- Time course of hClpP activity [2]: time-dependent increase in hClpP activity

- EC50 [1, 5]: 1.2 µM
SMILES: N#Cc1cccc(CC2CCC3=C(C2)C(=O)N(Cc2ccc(C(F)(F)F)cc2)C2=NCCN23)c1 (stereo not shown) [Ex. 67, 3-[(5-oxo-4-{[4-(trifluoromethyl)phenyl]methyl}-1H,2H,4H,5H,6H,7H,8H,9H-imidazo[1,2-a]quinazolin-7-yl)methyl]benzonitrile]
- Dose-dependency of hClpP activation [2]: Dose-dependent increases in hClpP activity

- EC50 [1, 5]: 0.0055 µM
SMILES: N#Cc1cccc(CN2CC3=C(C2)N2CCN=C2N(Cc2ccc(Cl)cc2)C3=O)c1 [Ex. 66]
- Dose-dependency of hClpP activation [2]: Dose-dependent increases in hClpP activity

- EC50 [3, 6]: 1.1 µM
- EC50 [1, 5]: 1.4 µM
SMILES: Cn1c2c(c(=O)n(Cc3cccc(C(F)(F)F)c3)c1=O)CN(Cc1ccccc1)CC2 [Example 39]

- EC50 [1, 5]: 0.039 µM
SMILES: O=C1C2=C(CN(Cc3ccccc3)C2)N2CCN=C2N1Cc1ccc(Br)cc1 [Example 81, 4-benzyl-8-[(4-bromophenyl)methyl]1,4,8,10-tetraazatricyclo[7.3.0.0^2,6]dodeca-2 (6),9-diene-7-one]
- Time course of hClpP activity [2]: time-dependent increase in hClpP activity

- EC50 [1, 5]: 1.4 µM
SMILES: CC1(C)CN=C2N(Cc3ccc(Cl)cc3)C(=O)C3=C(CCN(Cc4cccc(C#N)c4)C3)N2C1 [Example 70, 3-({9-[(4-chlorophenyl)methyl]-13,13-dimethyl-8-oxo-1,5,9,11-tetraazatricyclo[8.4.0.0^2,7]tetradeca-2 (7), 10-dien-5-yl}methyl)benzonitrile]

- EC50 [1, 5]: 0.003 µM
SMILES: N#Cc1cccc(CN2CC3=C(C2)N2CCN=C2N(Cc2ccc(Br)cc2)C3=O)c1 [Example 76, 3-({8-[(4-bromophenyl)methyl]-7-oxo-1,4,8,10-tetraazatricyclo[7.3.0.0^2,6}dodeca-2(6),9-dien-4-yl}methyl)benzonitrile]

- IC50 ([3]; MDA 231, 48 hours, CCK-8): 0.27 µM
- IC50 ([1]; HCT116, 48 hours, CCK-8): 0.36 µM
SMILES: O=C1C2=C(CCN(Cc3cccc(OC(F)(F)F)c3)C2)N2CCN=C2N1Cc1ccc(C(F)(F)F)cc1 [Example 3]

- EC50 [1, 5]: 0.244 µM
SMILES: N#Cc1cccc(CN2CCC3=C(C2)C(=O)N(Cc2ccc(Cl)cc2)C2=NCC(F)(F)CN23)c1 [Example 71, 3-({9-[(4-chlorophenyl)methyl]-13,13-difluoro-8-oxo-1,5,9,11-tetraazatricyclo[8.4.0.0^2,7]tetradeca-2 (7), 10-dien-5-yl}methyl)benzonitrile]
